# Measured values: a melting point compilation (Tetko et al.; mined from patent text by program, amines drawn as free bases though some values may be those of a salt)
row,melting point [°C],SMILES
1,> 260,Cc1ccc(C)n1C1=CC2=C(CC1)CCc1[nH]c(=O)c(=O)n(OCC(=O)O)c12
2,182 to 183,Cc1nc2ccccc2n2cnc(C(=O)OC(C)C)c12
3,188 to 190,C[C@@H](O)Cn1cnc2c(N)ncnc21
4,190 to 192,Cc1cccc2[nH]c(C(=O)OC(C)C)c(Sc3ccc(Cl)cc3)c12
5,144 to 146,CCCCc1c(C(=O)OCC)cc(Oc2nnnn2-c2ccccc2)c2c(OC)cccc12
6,100 to 102,C=Cc1c(NCc2ccco2)nc(-c2ccc(Cl)c(OC)c2F)nc1C(=O)OC
7,75 to 77,CC1(c2cccc(N)c2)OCCO1
8,193 to 195,CCOC(=O)c1cc2c(nc(C)n2C)c(O)c1CCC(O)c1ccccc1 (stereo not given)
9,108 to 116,COc1ccc(-c2cc(COS(C)(=O)=O)c(=O)n(CC3CCCC3)n2)cc1F
10,171 to 173,Cc1nn(-c2ccccn2)c2[nH]c3ccc(N(C)C)cc3c(=O)c12
11,97,CCOC(=O)/C=C1\CCOc2ccc(N)cc21
12,180 to 185,c1nc(-c2ccc3c(c2)OCO3)c2cc3c(cc2n1)OCO3
13,274 to 279,CC(C)(C)C(=O)Nc1ccc(-c2ccncc2)cc1
14,189 to 191,N#Cc1ccc(C=Cc2ncn(CC(O)(Cn3cncn3)c3ccc(F)cc3F)n2)cc1 (stereo not given)
15,114 to 116,CCN1C(=O)Cc2ccc(OC(=O)CCl)cc21
16,230 to 232,COc1cc(C(=O)N2CCCCc3cc(Cl)ccc32)ccc1NC(=O)N(C)C
17,87 to 88,Cc1oc(-c2cccnc2)nc1CCl
18,250 to 252,CCOC(=O)c1cc2n(C)c3ccc(C)cc3c(=O)n2n1
19,142 to 144,CCOC(=O)c1ccc(C#CC(O)c2cc(C(C)(C)C)cc(C(C)(C)C)c2O)cc1 (stereo not given)
20,180 to 181,NC(=O)Cc1c[nH]c2ncccc12

row,melting point [°C],SMILES
1,117 to 119,Cn1nc(C(F)(F)F)n(-c2ccc(I)cc2Cl)c1=S
2,124 to 126,COC(=O)c1cc(S(N)(=O)=O)ccc1S(=O)(=O)CCCO
3,103 to 105,CCOC(=O)C(=CNc1ccccc1OC)C(C)=O
4,> 300,O=C(O)c1ccc(-c2nc(-c3ccncc3)cs2)cc1
5,126 to 128,COc1cccc(C(O)c2ccncc2)c1OC (stereo not given)
6,208,Cc1ccc2c(c1)C(c1ccccc1Cl)C(=O)N2 (stereo not given)
7,> 260,Cc1ccc(-c2nc(N)nc(N)n2)cn1
8,180,Cc1c(NC(=O)c2ccc(OCC3CC3)cc2)ccc2cc(CNCC(C)(C)O)n(C)c12
9,95 to 96,COc1ccc(CSC2CNC(=O)C2)cc1 (stereo not given)
10,131,Nc1ccc(Oc2ccc3cccnc3c2)cc1
11,162 to 164,COCOc1nn(-c2ccccc2)cc1/C=C/c1nc(N2CCOCC2)sc1C
12,203 to 205,CN(c1ncc2ncnc(Nc3ccc(F)c(Cl)c3)c2n1)[C@H]1CC[C@H](N)CC1
13,72.5 to 74,CCC(CC)Oc1cc(C)nc(Oc2c(C)cc(C)cc2C)c1C
14,189 to 192,O=c1c(Br)cc(-c2ccncn2)cn1Cc1ccccc1
15,253,Oc1ccc(-c2nc3ccccc3o2)cc1
16,198 to 200,Nc1nc(N)nc(-c2ccc(Oc3ccccc3)cc2)n1
17,231 to 232,CC(=O)Nc1ccc(S(=O)(=O)Nc2cscn2)cc1
18,175 to 176,CCCNC(=O)c1nc(C)ccc1C(=O)Nc1c(C#N)ccc(Cl)c1C
19,79 to 80,Cc1oc(-c2ccccc2)nc1COc1cccc(CCl)c1

# The remaining lines, values behind:
row,SMILES,melting point [°C]
1,CC(Oc1ccc(Oc2ccc(C(F)(F)F)cc2Cl)cc1)C(=O)O (stereo not given),90 to 92
2,CC(=O)Nc1cc(OCCC(=O)O)ccc1Oc1ccccc1,138 to 140
3,COc1ccc2sc(C(=O)NCCCCC(=O)O)c(OC(C)C)c2c1,135 to 137
4,O=C(O)c1ccc2c(c1F)OC(c1ccccc1)(c1ccccc1)O2,189 to 191
5,CCCCOc1ccc(S(=O)(=O)N2CC(NCC(O)c3ccc(O)c(NS(C)(=O)=O)c3)C2)cc1 (stereo not given),67 to 70
6,CCNC(=S)NC1=Nc2ccc(OC(F)(F)F)cc2SC1,199 to 201
7,CC(=O)Nc1ccc(OCC(O)CNC2CCc3ccccc3C2)cc1 (stereo not given),133 to 136
8,COCCOCCn1cc(C(=O)NCc2ccc(Cl)cc2)c(=O)c2cc(CN3CC[C@@H](O)C3)ccc21,106 to 109
9,O=C(O)C1=Cc2cc(CO)ccc2OC1C(F)(F)F (stereo not given),178 to 181
10,COc1ccc(CNc2ccc(C#N)cc2)cc1OC,150
11,CC(=O)OCC1OC(OCCBr)C(OC(C)=O)C(OC(C)=O)C1OC(C)=O (stereo not given),116 to 117
12,CC(=O)NNC1=Nc2sc(Cl)cc2C(c2ccccn2)=NC1,193 to 195
13,CC(C)(C)c1cc(C(=O)Cl)cc(C(C)(C)C)c1O,90 to 93
14,N#CCCC(C#N)(CCC#N)C(N)=O,118 to 120
15,CC(=O)OC1CSC(Oc2cncc(-c3cccc(C#N)c3)c2)C(OC(C)=O)C1OC(C)=O (stereo not given),130 to 131
16,CN(C)c1ccc2c(c1)O/C(=C1/Oc3cc(N(C)C)ccc3C1=O)C2=O,> 320
17,CC(=O)OC(C)c1cc2c(s1)C(=O)c1sccc1C2=O (stereo not given),165 to 166
18,O=C(c1ccc([N+](=O)[O-])cc1)N1CCC[C@@H]2CCCC[C@H]21 (relative stereo),84 to 87

row,SMILES,melting point [°C]
1,O=C(/C=C/c1ccccc1)Nc1ccccc1C(=O)O,188 to 189
2,CCCCCCC(=O)C[C@H](O)C(=O)O,69 to 70
3,CCCOc1ccc(CCNC(=O)C=Cc2ccc(Cl)cc2Cl)cc1OCCC,132 to 134
4,CC(C)N(C)C(=O)C(Cc1ccc(C=O)cc1)NC(=O)OC(C)(C)C (stereo not given),122
5,CCOC(=O)c1ccc2n1Cc1ccccc1N(C(=O)c1ccc(NC(=O)c3ccc(Cl)cc3Cl)c(C)c1)C2,174 to 184
6,CSc1cc(C(C)C)c(NC(=O)C2c3ccccc3COc3ccc(Br)cc32)c(C(C)C)c1 (stereo not given),171 to 172
7,O=C(NCCCn1ccnc1)c1cccc(Cl)c1,125 to 127
8,CS(=O)(=O)N1CCS(=O)c2ccccc2C1 (stereo not given),195 to 197
9,COc1cc(C=CC(=O)Nc2cnc3c(C)cc(C)cc3c2-c2ccccc2Cl)ccc1OC(C)=O,174 to 175
10,O=S1(=O)c2cccc3cccc(c23)N1CCCN1CC=C(c2c[nH]c3ccc(Cl)cc23)CC1,189
11,Cc1c(Br)c2c(c(C)c1NC(=O)OC(C)(C)C)CC(C)O2 (stereo not given),115 to 116
12,COc1ccc(N(CCCC(=O)N(CCCC(=O)O)c2c(C)cccc2C)C(=O)c2ccc(Cl)cc2)cc1,131 to 133
13,CCOCn1cc(Cl)c(O)cc1=O,217 to 219
14,CCc1nc(CO)c(CO)[nH]1,173 to 174
15,CNS(=O)(=O)c1cc2c(c(C(=O)NC3CCN(C4CCCCC4)C3)c1)OCCO2 (stereo not given),160 to 161
16,CCCc1c(OCC(O)CSc2ccc(C(=O)CCC(=O)O)c(F)c2)ccc(C(C)=O)c1O (stereo not given),136 to 137
17,CN1C2CCC(N3C(=O)c4ccccc4C3=O)C1CC2 (stereo not given),145 to 147
18,COCCOc1ccc(/C=C/C(=O)NS(=O)(=O)c2cccc(C)c2)c(Oc2ncc(C(F)(F)F)cc2Cl)c1,147 to 148
